US8207209B2, “Methods of inhibiting viral infection” (priority 2007, dated 2012)

Tested on: Ebola virus
Design: species or system mice
Conditions: mouse, in vivo

| SMILES | protection [%] | effectiveness of single dose 4 days after challenge |
| --- | --- | --- |
| Cc1cc(NCCCN(C)C)c2ccc3c(ccc4c(NCCCN(C)C)cc(C)nc43)c2n1.Cl.Cl.Cl.Cl [Compound 365, Quino[8,7-h]quinoline-1,7-diamine,N,N′-bis[3-(dimethylamino)propyl]-3,9-dimethyl-tetrahydrochloride] | 100 | – |
| N=C(N)c1ccc2oc(C=Cc3nc4ccc(C(=N)N)cc4[nH]3)cc2c1 [Compound 723, 2-[2-(5-carbamimidoyl-benzofuran-2-yl)-vinyl]-3H-benzoimidazole-5-carboxamidine] | – | effectiveness |
